Experiments:
[1] = system: SH‐SY5Y control and transfected cells; test: MTT cell viability assay; format: cell-based, human; conditions: 24 h exposure, 10 µM, data not shown
Experimental: Cell viability was evaluated with the 3‐(4,5‐dimethylthiazol‐2‐yl)‐2,5‐diphenyltetrazolium bromide assay (MTT).^[ [25] ^] Upon 6 h and 24 h treatment with increasing concentrations (0‐10 µM) of C1, C2, and C3 dissolved in DMSO, cells were washed in PBS, pH 7.5, and then MTT (final concentration 0.5 mg mL^−1) was added to the culture medium without FBS and incubated for 2 h at 37 °C. The medium was then removed and replaced with 100 µL of DMSO. The optical density was measured at 550 nm in a microtiter plate reader. At least six cultures were utilized for each time point. Neuroblastoma cells, control and transfected cells, were then treated with C1, C2, and C3 for 6 and 24 h at the concentrations 0–1–5 µM. Compounds were dissolved in DMSO and then added to cell culture media. Control cells were included in each time point. After removing the medium and washing with cold phosphate buffered saline (PBS), cells were harvested in 4 mL of PBS and centrifuged at 1600 × g for 5 min. The pellet was resuspended in lysis buffer (20 mM Tris, pH 7.4, 250 mM sucrose, 1 mM EDTA, and 5 mM β‐mercaptoethanol) and passed through a 29‐gauge needle at least ten times. Lysates were centrifuged at 12 000×g for 15 min and the supernatants were stored at ‐80°C until use. Protein concentration was determined by the method of Bradford using bovine serum albumin (BSA) as standard.^[ [26] ^]

[2] = molecular target: T1, 20S proteasome (Homo sapiens, UniProt P28072+P28074+Q99436); test: 20S proteasome activity in cell lysates (fluorimetric); format: cell-based; conditions: cellular lysates, 1 and 5 µM, 6 and 24 h
T1 construct: The incubation mixture contained 1 µg of cell lysate, the appropriate substrate; endogenous in cells; host or cells: SH-SY5Y (control, APPwt- and APPmut-transfected); only APP is transfected, the proteasome is endogenous
T1 sequence (P28074 60-263): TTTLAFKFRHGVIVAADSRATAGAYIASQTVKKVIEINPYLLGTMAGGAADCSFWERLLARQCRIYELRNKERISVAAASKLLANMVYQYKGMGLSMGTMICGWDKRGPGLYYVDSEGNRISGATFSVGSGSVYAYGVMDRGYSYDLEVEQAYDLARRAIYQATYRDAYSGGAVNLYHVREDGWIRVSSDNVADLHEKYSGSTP
T1 sequence (Q99436 44-277): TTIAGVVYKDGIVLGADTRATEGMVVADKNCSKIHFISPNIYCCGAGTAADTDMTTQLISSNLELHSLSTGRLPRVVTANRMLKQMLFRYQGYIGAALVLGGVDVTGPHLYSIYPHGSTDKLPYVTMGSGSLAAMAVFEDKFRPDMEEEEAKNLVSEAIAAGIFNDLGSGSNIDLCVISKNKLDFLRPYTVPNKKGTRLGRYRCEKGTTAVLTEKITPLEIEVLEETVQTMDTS
T1 sequence (P28072 1-239): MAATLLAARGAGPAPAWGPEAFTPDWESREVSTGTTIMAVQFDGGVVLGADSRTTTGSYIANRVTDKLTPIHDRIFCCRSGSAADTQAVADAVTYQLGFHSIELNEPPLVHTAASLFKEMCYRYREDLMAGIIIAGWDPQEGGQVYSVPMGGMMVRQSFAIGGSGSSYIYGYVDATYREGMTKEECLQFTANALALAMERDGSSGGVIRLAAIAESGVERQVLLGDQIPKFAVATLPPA
Experimental: (§1) Cell viability was evaluated with the 3‐(4,5‐dimethylthiazol‐2‐yl)‐2,5‐diphenyltetrazolium bromide assay (MTT).^[ [25] ^] Upon 6 h and 24 h treatment with increasing concentrations (0‐10 µM) of C1, C2, and C3 dissolved in DMSO, cells were washed in PBS, pH 7.5, and then MTT (final concentration 0.5 mg mL^−1) was added to the culture medium without FBS and incubated for 2 h at 37 °C. The medium was then removed and replaced with 100 µL of DMSO. The optical density was measured at 550 nm in a microtiter plate reader. At least six cultures were utilized for each time point. […] Protein concentration was determined by the method of Bradford using bovine serum albumin (BSA) as standard.^[ [26] ^]
(§2) The effects on the proteasome system were evaluated through fluorimetric assays, as previously reported,^[ [27] ^] using the following synthetic substrates: Leu‐Leu‐Val‐Tyr‐AMC for ChT‐L, Leu‐Ser‐Thr‐Arg‐AMC for T‐L, Leu‐Leu‐Glu‐AMC for PGPH, and Gly‐Pro‐Ala‐Leu‐Ala‐AMC for BrAAP, whose test is performed with the addition of the aminopeptidase‐N (AP‐N). […] Incubation was performed at 37 °C, and after 60 min, the fluorescence of the hydrolyzed 7‐amino‐4‐methyl‐coumarin (AMC) was recorded (AMC, λexc = 365 nm, λem = 449 nm) on a SpectraMax Gemini XPS microplate reader. […] The fluorescence values of lysates were subtracted of the values of control assays in the presence of the two inhibitors.

[3] = molecular target: T2, 26S proteasome (Homo sapiens, UniProt P28074); test: 26S proteasome ChT‐L activity in cell lysates (fluorimetric); format: cell-based; conditions: cellular lysates, 24‐h exposure; versus untreated cells
T2 construct: ChT‐L activity of the 26S proteasome measured in control and transfected SH‐SY5Y cells; endogenous in cells; host or cells: SH-SY5Y (control, APPwt- and APPmut-transfected)
T2 sequence (P28074 60-263): T1 sequence (P28074 60-263)
Experimental: as §1, §2

O=C1CCC(Cc2ccc(O)c(O)c2)O1 (stereo not shown) [Compound C2, 5‐(3ʹ,4ʹ‐dihydroxyphenyl)‐γ‐valerolactone]
number of APPmut viable cells (MTT) [1]: minor reduction
proteasome inhibition, comparison among the three tested compounds [2]: the least efficient

O=C1CCC(Cc2ccc(OS(=O)(=O)O)c(O)c2)O1 (stereo not shown) [Compound C3, 5‐(3ʹ‐hydroxyphenyl)‐γ‐valerolactone‐4ʹ‐sulfate]
ChT‐L residual activity, 26S proteasome [3]: 60%

O=C1CCC(Cc2ccc(O)cc2)O1 (stereo not shown) [Compound C1, 5‐(4ʹ‐hydroxyphenyl)‐γ‐valerolactone]
ChT‐L residual activity, 26S proteasome [3]: 30%

From publication PMC9285603, “Flavan‐3‐ol Microbial Metabolites Modulate Proteolysis in Neuronal Cells Reducing Amyloid‐beta (1‐42) Levels” (Molecular Nutrition & Food Research, 2021)
